Measurements: patent publication US10913738B2 (BRISTOL-MYERS SQUIBB COMPANY, priority 2017, dated 2021)
Like-named read-outs stand apart in the source and are kept apart here.

Columns and labels:
[1] = molecular target: T1, His-GST-TVMV-hRIPK1(1-324) (Homo sapiens, UniProt Q13546); test: RIPK1 HTRF Binding Assay
T1 construct: The coding region of human RIPK1(1-324) flanked by NdeI site at 5′ end; made in house; host or cells: Spodoptera frugiperda (Sf9) insect cells, baculovirus
T1 sequence (Q13546 1-324): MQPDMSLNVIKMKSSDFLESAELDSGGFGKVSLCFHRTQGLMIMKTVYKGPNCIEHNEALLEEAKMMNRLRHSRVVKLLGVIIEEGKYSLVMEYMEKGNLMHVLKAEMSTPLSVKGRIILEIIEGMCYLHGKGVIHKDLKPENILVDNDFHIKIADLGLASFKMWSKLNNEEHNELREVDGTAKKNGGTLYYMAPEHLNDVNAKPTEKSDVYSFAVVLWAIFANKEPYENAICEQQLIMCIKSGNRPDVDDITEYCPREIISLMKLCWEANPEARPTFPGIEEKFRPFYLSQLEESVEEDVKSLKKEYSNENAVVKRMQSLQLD
Description: The plate was incubated at rt for 1 h.
Cloning and Baculovirus Expression of RIPK1 Construct
Baculovirus was generated for the construct using the Bac-to-Bac baculovirus expression system (Invitrogen) according to the manufacturer's protocol. Briefly, recombinant bacmid was isolated from transformed DH10Bac E. coli competent cells (Invitrogen) and used to transfect Spodoptera frugiperda (Sf9) insect cells (Invitrogen). Baculovirus was harvested 72 hours post transfection and a virus stock was prepared by infecting fresh Sf9 cells at a 1/1000 (v/v) ratio for 66 hours.
The production was carried out either at a 10 L scale in a 22 L cellbag (GE Healthcare Bioscience, Pittsburgh, Pa.) or at a 20 L scale in a 50 L cellbag using WAVE-Bioreactor System 20/50 (GE Healthcare Bioscience). The infected cells were harvested by centrifugation at 2000 rpm for 20 min at 4° C. in a SORVALL® RC12BP centrifuge. The cell pellets was stored at −70° C. before protein was purified.
RIPK1 containing cell paste was resuspended in 50 mM Tris pH 7.5, 150 mM NaCl, 10 mM imidazole, 5% glycerol, 5 mM MgSO4, 1 mM TCEP, 25 U/ml Benzonase, and Complete Protease Inhibitor tablets (1/50 ml, Roche Diagnostics, Indianapolis, Ind.). […] The suspension was clarified by centrifugation at 136,000×g for 40 min, at 4° C. The lysate was decanted from the pellet and passed through a 5 ml NiNTA Superflow cartridge (Qiagen, Valencia, Calif.) using an AKTA Pure (GE Healthcare). Column was eluted with 10 CV linear gradient into 50 mM Tris 7.5, 150 mM NaCl, 500 mM imidazole, 5% glycerol, 1 mM TCEP. Peak fractions were pooled and loaded directly onto 5 ml GSTrap 4B column (GE Healthcare). Column was washed with 50 mM Tris 7.0, 150 mM NaCl, 5% glycerol, 1 mM DTT and eluted in 10 CV linear gradient into 50 mM Tris 8.0, 150 mM NaCl, 20 mM reduced glutathione, 5% glycerol, 1 mM DTT. Fractions identified by SDS-PAGE as containing RIPK1 were pooled and concentrated using 30 kDa MWCO spin concentrators (Amicon Ultra-15, Millipore, Billerica, Mass.) and loaded onto a HiLoad 26/600 Superdex 200 column (GE Healthcare) equilibrated in 25 mM Tris 7.5, 150 mM NaCl, 2 mM TCEP, 5% glycerol.
Protein was aliquoted and stored at −80° C.

[2] = system: MLKL phosphorylation in HT29-L23 human colorectal adenocarcinoma cells; test: MLKL Phosphorylation High-Content Assay; format: cell-based; settings: Homo sapiens
Description: MLKL Phosphorylation High-Content Assay
Following six hours incubation at 37° C. […] MLKL phosporylation was detected using anti-MLKL (phospho S358) antibody (Abcam #ab187091) (1:1000 dilution in Blocking Buffer [PBS supplemented with 0.1% BSA]) with overnight incubation at 4° C. […] Following another three cycles of washes in PBS, the microplates were sealed, and cellular images were acquired in the Cellomics ArrayScan VTI high-content imager equipped with an X1 camera. […] The image sets were analyzed using the Compartmental Analysis Bioapplication software (Cellomics). The level of MLKL phosphorylation was quantified as MEAN CircRingAvgIntenRatio. […] The data were fitted using the 4-parameter logistic equation to calculate the IC50 and Ymax values.

[3] = x marks IC50 class <20 nM, read-out: RIPK1 HTRF binding <20 nM
[4] = x marks IC50 class 20-200 nM, read-out: pMLKL cell activity 20-200 nM
[5] = x marks IC50 class <20 nM, read-out: pMLKL cell activity <20 nM
[6] = x marks IC50 class 20-200 nM, read-out: RIPK1 HTRF binding 20-200 nM
[7] = x marks IC50 class >200 nM, read-out: RIPK1 HTRF binding >200 nM
[8] = x marks IC50 class >200 nM, read-out: pMLKL cell activity >200 nM

## COc1nc(C)c(-c2ccn3nc(N)nc3c2)cc1C(=O)NCc1cccc(F)c1CN1CCOCC1 [Example 355, 5-(2-amino-[1,2,4]triazolo[1,5-a]pyridin-7-yl)-N-(3-fluoro-2-(morpholinomethyl)benzyl)-2-methoxy-6-methylnicotinamide]
[1]; [3]
  IC50: < 0.02 µM
[2]; [4]
  IC50: 0.02 to 0.2 µM

## Nc1nc2cc(-c3cnc(N)c(C(=O)NCc4c(F)cccc4OC4CCCC4)c3)ccn2n1 [Example 48, 2-Amino-5-{2-amino-[1,2,4]triazolo[1,5-a]pyridin-7-yl}-N-{[2-(cyclopentyloxy)-6-fluorophenyl]methyl}pyridine-3-carboxamide]
[1]; [3]
  IC50: < 0.02 µM
[2]; [5]
  IC50: < 0.02 µM

## Cc1ncc(-c2ccn3nc(N)nc3c2)cc1C(=O)NCc1ccccc1OC1CCOCC1 [Example 5, 5-{2-Amino-[1,2,4]triazolo[1,5-a]pyridin-7-yl}-2-methyl-N-{[2-(oxan-4-yloxy)phenyl]methyl}pyridine-3-carboxamide]
[1]; [3]
  IC50: < 0.02 µM
[2]; [4]
  IC50: 0.02 to 0.2 µM

## COc1nc(C)c(-c2ccn3nc(N)nc3c2)cc1C(=O)NCc1c(F)cccc1OCC1CCC1 [Example 214, 5-{2-amino-[1,2,4]triazolo[1,5-a]pyridin-7-yl}-N-{[2-(cyclobutylmethoxy)-6-fluorophenyl]methyl}-2-methoxy-6-methylpyridine-3-carboxamide]
[1]; [3]
  IC50: < 0.02 µM
[2]; [5]
  IC50: < 0.02 µM

## Nc1nc2cc(-c3cnc(Cl)c(C(=O)NCc4ccccc4OC4CCOC4)c3)ccn2n1 (stereo not shown) [Example 165]
[1]; [6]
  IC50: 0.02 to 0.2 µM
[2]; [4]
  IC50: 0.02 to 0.2 µM

## [2H]C([2H])(NC(=O)c1cc(-c2ccn3nc(N)nc3c2)c(C)nc1OC)c1cc(C(F)(F)F)ccc1F [Example 331, 5-(2-amino-[1,2,4]triazolo[1,5-a]pyridin-7-yl)-N-((2-fluoro-5-(trifluoromethyl)phenyl)methyl-d2)-2-methoxy-6-methylnicotinamide]
[1]; [3]
  IC50: < 0.02 µM
[2]; [4]
  IC50: 0.02 to 0.2 µM

## Cc1cnc(-c2ccn3nc(N)nc3c2)cc1C(=O)NCCC(C)c1ccccc1 (stereo not shown) [Example 393, 2-(2-amino-[1,2,4]triazolo[1,5-a]pyridin-7-yl)-5-methyl-N-(3-phenylbutyl)isonicotinamide]
[1]; [3]
  IC50: < 0.02 µM
[2]; [4]
  IC50: 0.02 to 0.2 µM

## CCOc1ncc(-c2ccn3nc(N)nc3c2)cc1C(=O)NCC1(c2ccccc2F)CC1 [Example 274, 5-{2-amino-[1,2,4]triazolo[1,5-a]pyridin-7-yl}-2-ethoxy-N-{[1-(2-fluorophenyl)cyclopropyl]methyl}pyridine-3-carboxamide]
[1]; [7]
  IC50: > 0.2 µM
[2]; [4]
  IC50: 0.02 to 0.2 µM

## Cc1cnc(-c2ccn3nc(N)nc3c2)nc1C(=O)N[C@H](C)c1cc(OC(F)(F)F)ccc1F [Example 407, (R)-2-(2-amino-[1,2,4]triazolo[1,5-a]pyridin-7-yl)-N-(1-(2-fluoro-5-(trifluoromethoxy)phenyl)ethyl)-5-methylpyrimidine-4-carboxamide]
[1]; [6]
  IC50: 0.02 to 0.2 µM
[2]; [4]
  IC50: 0.02 to 0.2 µM

## [2H]C([2H])([2H])[C@@H](NC(=O)c1nc(-c2ccn3nc(N)nc3c2)cnc1OC)c1cc(OC(F)(F)F)ccc1F [Example 383, (R)-6-(2-amino-[1,2,4]triazolo[1,5-a]pyridin-7-yl)-N-(1-(2-fluoro-5-(trifluoromethoxy)phenyl)ethyl-2,2,2-d3)-3-methoxypyrazine-2-carboxamide]
[1]; [3]
  IC50: < 0.02 µM
[2]; [8]
  IC50: > 0.2 µM

## [2H]C([2H])(NC(=O)c1cc(-c2ccn3nc(N)nc3c2)cnc1OC)c1ccccc1OC(F)(F)F [Example 2, 5-{2-Amino-[1,2,4]triazolo[1,5-a]pyridin-7-yl}-2-methoxy-N-{[2-(trifluoromethoxy)phenyl](^2H)methyl}pyridine-3-carboxamide]
[1]; [6]
  IC50: 0.02 to 0.2 µM
[2]; [4]
  IC50: 0.02 to 0.2 µM

## Cc1ncc(-c2ccn3nc(N)nc3c2)cc1C(=O)NCc1cccnc1OCC1CCCC1 [Example 231, 5-{2-amino-[1,2,4]triazolo[1,5-a]pyridin-7-yl}-N-{[2-(cyclopentylmethoxy)pyridin-3-yl]methyl}-2-methylpyridine-3-carboxamide]
[1]; [6]
  IC50: 0.02 to 0.2 µM
[2]; [8]
  IC50: > 0.2 µM

## COc1nc(C)c(-c2ccn3nc(N)nc3c2)cc1C(=O)NCc1ccccc1OCC1CCC(F)(F)CC1 [Example 11, 5-{2-Amino-[1,2,4]triazolo[1,5-a]pyridin-7-yl}-N-({2-[(4,4-difluorocyclohexyl)methoxy]phenyl}methyl)-2-methoxy-6-methylpyridine-3-carboxamide]
[1]; [3]
  IC50: < 0.02 µM
[2]; [8]
  IC50: > 0.2 µM

## COc1ncc(-c2ccn3nc(N)nc3c2)cc1C(=O)NCc1cc(F)cc(F)c1O[C@@H]1CCOC1 [Example 363, (R)-5-(2-amino-[1,2,4]triazolo[1,5-a]pyridin-7-yl)-N-(3,5-difluoro-2-((tetrahydrofuran-3-yl)oxy)benzyl)-2-methoxynicotinamide]
[1]; [3]
  IC50: < 0.02 µM
[2]; [4]
  IC50: 0.02 to 0.2 µM

## COc1ncc(-c2ccn3nc(N)nc3c2)cc1C(=O)NC1CCCC(NC(=O)OC(C)(C)C)C1 (stereo not shown) [Example 426, tert-butyl (3-(5-(2-amino-[1,2,4]triazolo[1,5-a]pyridin-7-yl)-2-methoxynicotinamido)cyclohexyl)carbamate]
[1]; [7]
  IC50: > 0.2 µM
[2]; [8]
  IC50: > 0.2 µM

## [2H]C([2H])(NC(=O)c1cc(-c2ccn3nc(N)nc3c2)cnc1OC)c1cc(F)cc(F)c1OCC1CC1 [Example 88, 5-{2-amino-[1,2,4]triazolo[1,5-a]pyridin-7-yl}-N-{[2-(cyclopropylmethoxy)-3,5-difluorophenyl](deutero)methyl}-2-methoxypyridine-3-carboxamide]
[1]; [3]
  IC50: < 0.02 µM
[2]; [5]
  IC50: < 0.02 µM

## Cc1ncc(-c2ccn3nc(N)nc3c2)cc1C(=O)NCc1cc(F)cc(F)c1OCC1CC1 [Example 235, 5-{2-amino-[1,2,4]triazolo[1,5-a]pyridin-7-yl}-N-{[2-(cyclopropylmethoxy)-3,5-difluorophenyl]methyl}-2-methylpyridine-3-carboxamide]
[1]; [3]
  IC50: < 0.02 µM
[2]; [4]
  IC50: 0.02 to 0.2 µM

## COc1nc(C)c(-c2ccn3nc(N)nc3c2)cc1C(=O)NCc1cc(F)cc(F)c1OC1CC(C)OC(C)C1 (stereo not shown) [Example 353, 5-(2-amino-[1,2,4]triazolo[1,5-a]pyridin-7-yl)-N-(2-((2,6-dimethyltetrahydro-2H-pyran-4-yl)oxy)-3,5-difluorobenzyl)-2-methoxy-6-methylnicotinamide]
[1]; [3]
  IC50: < 0.02 µM
[2]; [4]
  IC50: 0.02 to 0.2 µM

## Cc1cnc(-c2ccn3nc(N)nc3c2)nc1C(=O)NCC[C@@H](O)c1ccc(Cl)cc1 [Example 408, (R)-2-(2-amino-[1,2,4]triazolo[1,5-a]pyridin-7-yl)-N-(3-(4-chlorophenyl)-3-hydroxypropyl)-5-methylpyrimidine-4-carboxamide]
[1]; [6]
  IC50: 0.02 to 0.2 µM
[2]; [4]
  IC50: 0.02 to 0.2 µM

## COc1ncc(-c2ccn3nc(N)nc3c2)cc1C(=O)NCc1cc(C(F)(F)F)ccc1F [Example 116, 5-{2-amino-[1,2,4]triazolo[1,5-a]pyridin-7-yl}-N-{[2-fluoro-5-(trifluoromethyl)phenyl]methyl}-2-methoxypyridine-3-carboxamide]
[1]; [6]
  IC50: 0.02 to 0.2 µM
[2]; [4]
  IC50: 0.02 to 0.2 µM
